{
  "source": "paper PMC7288428",
  "about": "“Amaryllidaceae alkaloids with anti-Trypanosoma cruzi activity” (Parasites & Vectors, 2020)",
  "key": {"protozoa": {"system": "protozoa", "design": "method as in ref 28, 29 = [28]; PMID 15541744; doi:10.1016/j.phytochem.2004.10.004; 28. Machocho AK Bastida J Codina C Viladomat F Brun R Chabra SC Augustamine type alkaloids from Crinum kirkii Phytochemistry. 2004 65 3143 3149 15541744 10.1016/j.phytochem.2004.10.004 || [29]; 29. Osorio EJ Berkov S Brun R Codina C Viladomat F Cabezas F In vitro antiprotozoal activity of alkaloids from Phaedranassa dubia (Amaryllidaceae) Phytochem Lett. 2010 3 161 163", "settings": "cited from earlier work"}, "[1]": {"system": "trypomastigotes from the T. cruzi strain Tulahuen C4", "design": "method as in ref 28 = [28]; PMID 15541744; doi:10.1016/j.phytochem.2004.10.004; 28. Machocho AK Bastida J Codina C Viladomat F Brun R Chabra SC Augustamine type alkaloids from Crinum kirkii Phytochemistry. 2004 65 3143 3149 15541744 10.1016/j.phytochem.2004.10.004", "settings": "cited from earlier work"}, "[2]": {"system": "T. cruzi intracellular amastigote forms", "experiment": "Anti-amastigote specific activity assay (Vero host cells)", "format": "cell-based", "settings": "Trypanosoma cruzi, 96 h, read-out: anti-amastigote activity (IC50)"}, "Vero cells": {"system": "Vero cells", "experiment": "Vero cell toxicity assay (Alamar Blue)", "settings": "4 days, mean (SD in text)"}, "HepG2 cells [3]": {"system": "HepG2 cells", "experiment": "HepG2 cell toxicity assay (Alamar Blue)", "settings": "2 days, mean (SD in text)"}, "HepG2 cells [4]": {"system": "HepG2 cells", "design": "method as in PMID 7701000", "settings": "cited from earlier work"}, "T. cruzi [5]": {"system": "T. cruzi", "design": "method as in earlier work", "settings": "cited from earlier work"}, "[6]": {"system": "avian influenza virus H5N1", "settings": "read-out: IC50 against avian influenza virus H5N1; cited from earlier work"}, "T. cruzi [7]": {"system": "T. cruzi", "design": "method as in PMID 9810280, PMID 11301878, PMID 22673940", "settings": "L6 cells as host; cited from earlier work"}, "ZIKA virus [8]": {"system": "ZIKA virus", "design": "method as in PMID 28736217", "settings": "cited from earlier work"}, "ZIKA virus [9]": {"system": "ZIKA virus", "design": "method as in PMID 28736217", "settings": "cited from earlier work", "remark": "listed apart in the source"}, "ZIKA virus [10]": {"system": "ZIKA virus", "design": "method as in PMID 28736217", "settings": "human forebrain organoids; cited from earlier work"}},
  "note": "Values joined by “and” are separate entries in the source; they are usually repeats but may differ in a detail not shown here. Equal values may be shown once. Where a name gives a salt, the structure may show the parent alone. Read-outs that look alike come from different tables or passages of the source.",
  "data": [
    {"smiles": "CC(=O)O[C@@H]1CC=C2CCN3Cc4cc5c(cc4[C@H]1[C@@H]23)OCO5", "note": "[1-O-acetylcaranine]", "values": [
      {"measurement": "antiprotozoal activity described before", "setting": "protozoa", "result": "poor antiprotozoal agents"}
    ]},
    {"smiles": "CC(=O)O[C@H]1C=C[C@@]23CCN(C)Cc4ccc(O)c(c42)O[C@H]3C1", "note": "[3-O-acetylsanguinine]", "values": [
      {"measurement": "IC50 against trypomastigotes", "setting": "[1]", "result": 2.3, "unit": "µg/mL"},
      {"measurement": "IC50", "setting": "[1]; converted from μg/ml, read-out: IC50 against trypomastigotes", "result": 7.29, "unit": "µM"}
    ]},
    {"smiles": "O=C(Cn1ccnc1[N+](=O)[O-])NCc1ccccc1", "note": "[BNZ, benznidazole, reference compound]", "values": [
      {"measurement": "IC50", "setting": "[2]; intracellular amastigotes in Vero cells, mean (SD)", "result": 1.2, "unit": "µM"},
      {"measurement": "TC50, Vero cell toxicity assay", "setting": "Vero cells", "result": "173.4 (43.57) µM and 173.4 µM"},
      {"measurement": "TC50, HepG2 cell toxicity assay", "setting": "HepG2 cells [3]", "result": 168.76, "unit": "µM"}
    ]},
    {"smiles": "COC1C=CC23c4cc5c(cc4CN(CC2O)C3C1)OCO5", "note": "(centres unmarked) [Haemanthamine, haemanthamine]", "values": [
      {"measurement": "TC50 for HepG2 cells", "setting": "HepG2 cells [4]", "result": 13, "unit": "µg/mL"},
      {"measurement": "TC50 for HepG2 cells", "setting": "HepG2 cells [4]; converted from µg/ml", "result": 43.14, "unit": "µM"},
      {"measurement": "IC50 against T. cruzi", "setting": "T. cruzi [5]", "result": 1.8, "unit": "µg/mL"},
      {"measurement": "IC50", "setting": "T. cruzi [5]; converted from µg/ml, read-out: IC50 against T. cruzi", "result": 5.97, "unit": "µM"},
      {"measurement": "TC50, Vero cell toxicity assay", "setting": "Vero cells", "result": 11.52, "unit": "µM"},
      {"measurement": "TC50, HepG2 cell toxicity assay", "setting": "HepG2 cells [3]", "result": "42.48 (6.96) µM and 42.48 µM"}
    ]},
    {"smiles": "CN1CCC2=C[C@H](O)[C@H]3OC(=O)c4cc5c(cc4[C@H]3[C@@H]21)OCO5", "note": "[Hippeastrine, hippeastrine]", "values": [
      {"measurement": "IC50", "setting": "[6]", "result": 47.5, "unit": "µM"},
      {"measurement": "TC50 for HepG2 cells", "setting": "HepG2 cells [4]", "result": 40, "unit": "µg/mL"},
      {"measurement": "TC50 for HepG2 cells", "setting": "HepG2 cells [4]; converted from µg/ml", "result": 126.85, "unit": "µM"},
      {"measurement": "IC50", "setting": "[2]; Vero", "result": 3.31, "unit": "µM"},
      {"measurement": "TC50, Vero cell toxicity assay", "setting": "Vero cells", "result": 45.99, "unit": "µM"},
      {"measurement": "TC50, Vero cell toxicity assay", "setting": "Vero cells; listed as hippeastrine", "result": "45.99 (6.32) µM"},
      {"measurement": "TC50, HepG2 cell toxicity assay", "setting": "HepG2 cells [3]", "result": 128.10, "unit": "µM"},
      {"measurement": "TC50, HepG2 cell toxicity assay", "setting": "HepG2 cells [3]; listed as hippeastrine", "result": "128.1 (12.26) µM"}
    ]},
    {"smiles": "O[C@H]1[C@H]2c3cc4c(cc3CN3CCC(=C[C@@H]1O)[C@H]23)OCO4", "note": "[Lycorine, lycorine]", "values": [
      {"measurement": "activity against T. cruzi in previous studies", "setting": "T. cruzi [7]", "result": "inactive"},
      {"measurement": "TC50, Vero cell toxicity assay", "setting": "Vero cells", "result": 5.21, "unit": "µM"},
      {"measurement": "TC50, Vero cell toxicity assay", "setting": "Vero cells; listed as lycorine", "result": "5.21 (0.80) µM"},
      {"measurement": "TC50, HepG2 cell toxicity assay", "setting": "HepG2 cells [3]", "result": 21.87, "unit": "µM"},
      {"measurement": "TC50, HepG2 cell toxicity assay", "setting": "HepG2 cells [3]; listed as lycorine", "result": "21.87 (4.16) µM"}
    ]},
    {"smiles": "CO[C@H]1C=C2[C@H]3C[N@@](Cc4cc5c(cc43)OCO5)[C@H]2C[C@@H]1O", "note": "[Montanine, montanine]", "values": [
      {"measurement": "TC50, Vero cell toxicity assay", "setting": "Vero cells", "result": 5.04, "unit": "µM"},
      {"measurement": "TC50, HepG2 cell toxicity assay", "setting": "HepG2 cells [3]", "result": 46.10, "unit": "µM"},
      {"measurement": "TC50, HepG2 cell toxicity assay", "setting": "HepG2 cells [3]; listed as montanine", "result": "46.1 (11.99) µM"}
    ]},
    {"smiles": "O=C1N[C@@H]2C(=C[C@H](O)[C@@H](O)[C@H]2O)c2cc3c(c(O)c21)OCO3", "note": "[Narciclasine, narciclasine]", "values": [
      {"measurement": "TC50, Vero cell toxicity assay", "setting": "Vero cells", "result": 0.66, "unit": "µM"},
      {"measurement": "TC50, Vero cell toxicity assay", "setting": "Vero cells; listed as narciclasine", "result": "0.66 (0.082) µM"},
      {"measurement": "TC50, HepG2 cell toxicity assay", "setting": "HepG2 cells [3]", "result": 2.73, "unit": "µM"},
      {"measurement": "TC50, HepG2 cell toxicity assay", "setting": "HepG2 cells [3]; listed as narciclasine", "result": "2.73 (0.67) µM"}
    ]},
    {"smiles": "CN1CC[C@@]23C=C[C@H](O)C[C@@H]2Oc2c(O)ccc(c23)C1", "note": "[Sanguinine, sanguinine]", "values": [
      {"measurement": "antiprotozoal activity described before", "setting": "protozoa", "result": "poor antiprotozoal agents"}
    ]},
    {"smiles": "CO[C@@H]1C=C[C@@]23c4cc5c(cc4CO[C@]2(O)CN(C)[C@H]3C1)OCO5", "note": "[Tazettine, tazettine]", "values": [
      {"measurement": "antiprotozoal activity described before", "setting": "protozoa", "result": "poor antiprotozoal agents"}
    ]},
    {"smiles": "C[C@H]1O[C@@H](O[C@H]2[C@@H](O)C[C@H](O[C@H]3[C@@H](O)C[C@H](O[C@H]4CC[C@@]5(C)[C@H](CC[C@@H]6[C@@H]5CC[C@]5(C)[C@@H](C7=CC(=O)OC7)CC[C@]65O)C4)O[C@@H]3C)O[C@@H]2C)C[C@H](O)[C@@H]1O", "note": "[digitoxin, reference compound]", "values": [
      {"measurement": "TC50, HepG2 cell toxicity assay", "setting": "HepG2 cells [3]", "result": "0.29 (0.14) µM"}
    ]},
    {"smiles": "CN1CCC2=C[C@H](O)[C@H]3OC(=O)c4cc5c(cc4[C@H]3[C@@H]21)OCO5", "note": "[hippeastrine hydrobromide]", "values": [
      {"measurement": "effect on virus propagation in infected adult mice", "setting": "ZIKA virus [8]", "result": "suppress virus propagation in infected adult mice"},
      {"measurement": "effect on ZIKA virus in infected human neural progenitors", "setting": "ZIKA virus [9]", "result": "remove ZIKA virus from infected human neural progenitors"},
      {"measurement": "effect on ZIKV-induced microcephaly phenotype", "setting": "ZIKA virus [10]", "result": "recover a ZIKV-induced microcephaly phenotype in human forebrain organoids"}
    ]}
  ]
}
